From ChEMBL document CHEMBL2380247, “Synthesis and biological evaluation of novel aliphatic amido-quaternary ammonium salts for anticancer chemotherapy: part II” (2013)
Active and inactive are the calls of the source. No cut-off for these calls is given here.

Columns and labels:
NUGC-3 [1] = test: Antiproliferative activity against human NUGC3 cells at 0.3 uM by SRB assay; type: functional
NUGC-3 [2] = test: Antiproliferative activity against human NUGC3 cells at 0.1 uM by SRB assay; type: functional
NUGC-3 [3] = test: Antiproliferative activity against human NUGC3 cells at 1 uM by SRB assay; type: functional
NUGC-3 [4] = test: Antiproliferative activity against human NUGC3 cells at 10 uM by SRB assay; type: functional
NUGC-3 [5] = test: Antiproliferative activity against human NUGC3 cells at 3 uM by SRB assay; type: functional
MDA-MB-231 [6] = test: Antiproliferative activity against human MDA-MB-231 cells at 0.1 uM by SRB assay; type: functional
MDA-MB-231 [7] = test: Antiproliferative activity against human MDA-MB-231 cells at 0.3 uM by SRB assay; type: functional
MDA-MB-231 [8] = test: Antiproliferative activity against human MDA-MB-231 cells at 1 uM by SRB assay; type: functional
MDA-MB-231 [9] = test: Antiproliferative activity against human MDA-MB-231 cells at 10 uM by SRB assay; type: functional
MDA-MB-231 [10] = test: Antiproliferative activity against human MDA-MB-231 cells at 3 uM by SRB assay; type: functional
ACHN [11] = test: Antiproliferative activity against human ACHN cells at 0.1 uM by SRB assay; type: functional
ACHN [12] = test: Antiproliferative activity against human ACHN cells at 1 uM by SRB assay; type: functional
ACHN [13] = test: Antiproliferative activity against human ACHN cells at 0.3 uM by SRB assay; type: functional
ACHN [14] = test: Antiproliferative activity against human ACHN cells at 3 uM by SRB assay; type: functional
ACHN [15] = test: Antiproliferative activity against human ACHN cells at 10 uM by SRB assay; type: functional
NCI-H23 [16] = test: Antiproliferative activity against human NCI-H23 cells at 0.3 uM by SRB assay; type: functional
NCI-H23 [17] = test: Antiproliferative activity against human NCI-H23 cells at 0.1 uM by SRB assay; type: functional
NCI-H23 [18] = test: Antiproliferative activity against human NCI-H23 cells at 3 uM by SRB assay; type: functional
NCI-H23 [19] = test: Antiproliferative activity against human NCI-H23 cells at 1 uM by SRB assay; type: functional
NCI-H23 [20] = test: Antiproliferative activity against human NCI-H23 cells at 10 uM by SRB assay; type: functional
PC-3 [21] = test: Antiproliferative activity against human PC3 cells at 0.1 uM by SRB assay; type: functional
PC-3 [22] = test: Antiproliferative activity against human PC3 cells at 1 uM by SRB assay; type: functional
PC-3 [23] = test: Antiproliferative activity against human PC3 cells at 0.3 uM by SRB assay; type: functional
PC-3 [24] = test: Antiproliferative activity against human PC3 cells at 3 uM by SRB assay; type: functional
HCT-15 [25] = test: Antiproliferative activity against human HCT15 cells at 0.1 uM by SRB assay; type: functional
PC-3 [26] = test: Antiproliferative activity against human PC3 cells at 10 uM by SRB assay; type: functional
HCT-15 [27] = test: Antiproliferative activity against human HCT15 cells at 0.3 uM by SRB assay; type: functional
HCT-15 [28] = test: Antiproliferative activity against human HCT15 cells at 3 uM by SRB assay; type: functional
HCT-15 [29] = test: Antiproliferative activity against human HCT15 cells at 1 uM by SRB assay; type: functional
HCT-15 [30] = test: Antiproliferative activity against human HCT15 cells at 10 uM by SRB assay; type: functional
[31] = biological target: Rho-related GTP-binding protein RhoB (Homo sapiens) (UniProt P62745); test: Inhibition of RhoB transactivation in human HeLa cells by luciferase reporter assay; type: cell-based
Sequence of Rho-related GTP-binding protein RhoB (Homo sapiens) (P62745 whole entry): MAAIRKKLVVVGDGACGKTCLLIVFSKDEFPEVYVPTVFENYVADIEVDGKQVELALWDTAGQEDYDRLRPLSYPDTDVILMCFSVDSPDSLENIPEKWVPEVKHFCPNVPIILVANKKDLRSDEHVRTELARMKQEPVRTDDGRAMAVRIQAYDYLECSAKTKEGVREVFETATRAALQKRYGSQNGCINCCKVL

[32] = biological target: Rho-related GTP-binding protein RhoB (Homo sapiens) (UniProt P62745); test: Transactivation of RhoB in human HeLa cells by luciferase reporter assay; type: cell-based
NCI-H23 [33] = test: Antiproliferative activity against human NCI-H23 cells by SRB assay; type: functional
NUGC-3 [34] = test: Antiproliferative activity against human NUGC3 cells by SRB assay; type: functional
HCT-15 [35] = test: Antiproliferative activity against human HCT15 cells by SRB assay; type: functional
ACHN [36] = test: Antiproliferative activity against human ACHN cells by SRB assay; type: functional
MDA-MB-231 [37] = test: Antiproliferative activity against human MDA-MB-231 cells by SRB assay; type: functional
PC-3 [38] = test: Antiproliferative activity against human PC3 cells by SRB assay; type: functional

| SMILES | growth, % of control at 0.3 µM (NUGC-3 [1]) [%] | growth, % of control at 0.1 µM (NUGC-3 [2]) [%] | growth, % of control at 1 µM (NUGC-3 [3]) [%] | growth, % of control at 10 µM (NUGC-3 [4]) [%] | growth, % of control at 3 µM (NUGC-3 [5]) [%] | growth, % of control at 0.1 µM (MDA-MB-231 [6]) [%] | growth, % of control at 0.3 µM (MDA-MB-231 [7]) [%] | growth, % of control at 1 µM (MDA-MB-231 [8]) [%] | growth, % of control at 10 µM (MDA-MB-231 [9]) [%] | growth, % of control at 3 µM (MDA-MB-231 [10]) [%] | growth, % of control at 0.1 µM (ACHN [11]) [%] | growth, % of control at 1 µM (ACHN [12]) [%] | growth, % of control at 0.3 µM (ACHN [13]) [%] | growth, % of control at 3 µM (ACHN [14]) [%] | growth, % of control at 10 µM (ACHN [15]) [%] | growth, % of control at 0.3 µM (NCI-H23 [16]) [%] | growth, % of control at 0.1 µM (NCI-H23 [17]) [%] | growth, % of control at 3 µM (NCI-H23 [18]) [%] | growth, % of control at 1 µM (NCI-H23 [19]) [%] | growth, % of control at 10 µM (NCI-H23 [20]) [%] | further results |
| --- | --- | --- | --- | --- | --- | --- | --- | --- | --- | --- | --- | --- | --- | --- | --- | --- | --- | --- | --- | --- | --- |
| CCCCCCCCCCCCCCCCCC(=O)N(C)CC[N+](C)(C)C | 49 | 77.9 | 10.4 | -18.7 | 2.4 | 90.6 | 84.2 | 77.2 | 12.8 | 37 | 81.8 | 44.6 | 71.3 | 23.4 | -15.6 | 90.2 | 94.3 | 51.6 | 84.4 | 11.1 | growth, % of control at 0.1 µM (PC-3 [21]): 93.2%; growth, % of control at 1 µM (PC-3 [22]): 39.3%; growth, % of control at 0.3 µM (PC-3 [23]): 91.9%; growth, % of control at 3 µM (PC-3 [24]): 1.1%; growth, % of control at 0.1 µM (HCT-15 [25]): 92.9%; growth, % of control at 10 µM (PC-3 [26]): -11.6%; growth, % of control at 0.3 µM (HCT-15 [27]): 98.6%; growth, % of control at 3 µM (HCT-15 [28]): 25.4%; growth, % of control at 1 µM (HCT-15 [29]): 61.4%; growth, % of control at 10 µM (HCT-15 [30]): 20.5%; inhibition [31]: Active; Activity [32]: Active; GI50 (NCI-H23 [33]): 1520 nM; GI50 (NUGC-3 [34]): 140 nM; GI50 (HCT-15 [35]): 800 nM; GI50 (ACHN [36]): 360 nM; GI50 (MDA-MB-231 [37]): 1070 nM; GI50 (PC-3 [38]): 420 nM |
| CCCCCCCCCCCCCCCCCC(=O)NCCC[N+](C)(C)C | 93 | 98.4 | 63.8 | 15.3 | 37.7 | 96 | 98.1 | 92.5 | 29.9 | 59.9 | 99.2 | 85 | 101 | 64.3 | 42.8 | 103 | 102 | 56.5 | 90.7 | 5.43 | growth, % of control at 0.1 µM (PC-3 [21]): 97.5%; growth, % of control at 1 µM (PC-3 [22]): 51.3%; growth, % of control at 0.3 µM (PC-3 [23]): 97.7%; growth, % of control at 3 µM (PC-3 [24]): 3.63%; growth, % of control at 0.1 µM (HCT-15 [25]): 90.7%; growth, % of control at 10 µM (PC-3 [26]): -14.7%; growth, % of control at 0.3 µM (HCT-15 [27]): 86.5%; growth, % of control at 3 µM (HCT-15 [28]): 30.8%; growth, % of control at 1 µM (HCT-15 [29]): 64.3%; growth, % of control at 10 µM (HCT-15 [30]): 11.2%; inhibition [31]: Active; Activity [32]: Active; GI50 (NCI-H23 [33]): 1680 nM; GI50 (NUGC-3 [34]): 970 nM; GI50 (HCT-15 [35]): 790 nM; GI50 (ACHN [36]): 3400 nM; GI50 (MDA-MB-231 [37]): 2410 nM; GI50 (PC-3 [38]): 520 nM |
| CCCCCCCCCCCCCCCCCC(=O)NCC(C)(C)C[N+](C)(C)C | 72.3 | 79.4 | 46.7 | 26.4 | 17.7 | 78.5 | 78.8 | 70.9 | 26.8 | 41.6 | 86.5 | 71.3 | 79.6 | 43.5 | 45.8 | 95.3 | 97.1 | 47.4 | 86.3 | 21.5 | growth, % of control at 0.1 µM (PC-3 [21]): 84.1%; growth, % of control at 1 µM (PC-3 [22]): 11.9%; growth, % of control at 0.3 µM (PC-3 [23]): 76.1%; growth, % of control at 3 µM (PC-3 [24]): -38.6%; growth, % of control at 0.1 µM (HCT-15 [25]): 97.1%; growth, % of control at 10 µM (PC-3 [26]): -47%; growth, % of control at 0.3 µM (HCT-15 [27]): 91.8%; growth, % of control at 3 µM (HCT-15 [28]): 46%; growth, % of control at 1 µM (HCT-15 [29]): 81.1%; growth, % of control at 10 µM (HCT-15 [30]): 27.5%; Activity [32]: Active; GI50 (NCI-H23 [33]): 1710 nM; GI50 (NUGC-3 [34]): 450 nM; GI50 (HCT-15 [35]): 1730 nM; GI50 (ACHN [36]): 2300 nM; GI50 (MDA-MB-231 [37]): 1210 nM; GI50 (PC-3 [38]): 240 nM |
| CCCCCCCCCCCCCC(=O)NCC(C)(C)C[N+](C)(C)C | 104 | 103 | 84.7 | -33.6 | 16.2 | 98.5 | 103 | 90.2 | -11 | 44 | 94.5 | 95.1 | 96.2 | 83.8 | 28.7 | 109 | 147 | 48.3 | 104 | -26.6 | growth, % of control at 0.1 µM (PC-3 [21]): 97.9%; growth, % of control at 1 µM (PC-3 [22]): 64.1%; growth, % of control at 0.3 µM (PC-3 [23]): 94.5%; growth, % of control at 3 µM (PC-3 [24]): -13%; growth, % of control at 0.1 µM (HCT-15 [25]): 102%; growth, % of control at 10 µM (PC-3 [26]): -44.4%; growth, % of control at 0.3 µM (HCT-15 [27]): 101%; growth, % of control at 3 µM (HCT-15 [28]): 92.5%; growth, % of control at 1 µM (HCT-15 [29]): 97.9%; growth, % of control at 10 µM (HCT-15 [30]): 33.1%; Activity [32]: Active; GI50 (NCI-H23 [33]): 1440 nM; GI50 (NUGC-3 [34]): 840 nM; GI50 (HCT-15 [35]): 3700 nM; GI50 (ACHN [36]): 3120 nM; GI50 (MDA-MB-231 [37]): 1310 nM; GI50 (PC-3 [38]): 510 nM |
